Data: the NIST ThermoML archive (doi:10.1021/je401036f)
Values joined by “and” are separate entries in the source; they are usually repeats but may differ in a detail not shown here. Equal entries are not always repeated.

Legend:
[1] = 101 kPa, Liquid; for viscosity: Concentric cylinders viscometry; for mass density: Vibrating tube method
[2] = refractive index (Na D-line) (dimensionless); conditions: 101.33 kPa, Liquid, Standard Abbe refractometry
[3] = xn = mol fraction of the nth substance listed; conditions: 101 kPa, Liquid, x2 = 0; for viscosity: Concentric cylinders viscometry; for mass density: Vibrating tube method
[4] = refractive index (Na D-line) (dimensionless); xn = mol fraction of the nth substance listed; conditions: 101 kPa, Liquid, Standard Abbe refractometry, x2 = 0

CC(O)CN (stereo not given) [1-amino-2-propanol]
Conditions	mass density, [1] [kg/m3]	refractive index, [2]	viscosity, [1]
288.15 K	964.544	1.45	43.7 mPa·s
293.15 K	960.598	1.448	31.68 mPa·s
298.15 K	956.618	1.446	23.54 mPa·s
303.15 K	952.612	1.444	17.89 mPa·s and 17.9 mPa·s
308.15 K	948.577	1.4419	13.88 mPa·s
313.15 K	944.515	1.4399	10.96 mPa·s
318.15 K	940.423	1.4378	8.798 mPa·s
323.15 K	936.293	1.4358	7.166 mPa·s
328.15 K	932.13	1.4337	5.915 mPa·s
333.15 K	927.93	1.4315	4.986 mPa·s

CCCCO [butan-1-ol]
Conditions	mass density, [1] [kg/m3]	refractive index, [2]	viscosity, [1] [mPa·s]
288.15 K	813.353	1.4013	3.367
293.15 K	809.564	1.3992	2.914
298.15 K	805.752	1.3972	2.539
303.15 K	801.912	1.3951	2.228
308.15 K	798.039	1.393	1.962
313.15 K	794.13	1.391	1.739
318.15 K	790.18	1.3888	1.547
323.15 K	786.179	1.3867	1.382
328.15 K	782.125	1.3846	1.239
333.15 K	778.012	1.3824	1.138

CCCCO [butan-1-ol] + CC(O)CN
Conditions	mass density, [3] [kg/m3]	refractive index, [4]	viscosity, [3] [mPa·s]
288.15 K	813.353	1.4013	3.367
293.15 K	809.564	1.3992	2.914
298.15 K	805.752	1.3972	2.539
303.15 K	801.912	1.3951	2.228
308.15 K	798.039	1.393	1.962
313.15 K	794.13	1.391	1.739
318.15 K	790.18	1.3888	1.547
323.15 K	786.179	1.3867	1.382
328.15 K	782.125	1.3846	1.239
333.15 K	778.012	1.3824	1.138

CCC(C)O (stereo not given) [butan-2-ol]
Conditions	mass density, [1] [kg/m3]	refractive index, [2]	viscosity, [1] [mPa·s]
288.15 K	810.524	1.3995	4.59
293.15 K	806.487	1.3974	3.738
298.15 K	802.373	1.3952	3.074
303.15 K	798.174	1.393	2.552
308.15 K	793.881	1.3907	2.144
313.15 K	789.487	1.3883	1.818
318.15 K	784.988	1.3859	1.558
323.15 K	780.38	1.3835	1.348
328.15 K	775.656	1.381	1.179
333.15 K	770.82	1.3784	1.054

CCC(C)O (stereo not given) [butan-2-ol] + CC(O)CN
Conditions	mass density, [3] [kg/m3]	refractive index, [4]	viscosity, [3] [mPa·s]
288.15 K	810.524	1.3995	4.59
293.15 K	806.487	1.3974	3.738
298.15 K	802.373	1.3952	3.074
303.15 K	798.174	1.393	2.552
308.15 K	793.881	1.3907	2.144
313.15 K	789.487	1.3883	1.818
318.15 K	784.988	1.3859	1.558
323.15 K	780.38	1.3835	1.348
328.15 K	775.656	1.381	1.179
333.15 K	770.82	1.3784	1.054
